In one test the test system is OVCAR3 monospheroids. The experiment in a line: Response to carboplatin chemotherapy, MTS viability, monospheroids. It counts as cell-based. Here is the method: (§1) Spheroid formation on 384-well hanging drop arrays. OvCa monospheroids or OvCa/macrophage heterospheroids were formed on a 384-well hanging drop array following well-established protocols. OvCa monospheroids were initiated with 100 cells in a 20 μL drop of growth medium. To create OvCa/macrophage heterospheroids, the hanging drop platform was first leveraged to differentiate THP-1 monocytes to M0 macrophages by phorbol ester exposure20. Following a 3-day differentiation, macrophages were harvested and mixed with OvCa cells (50:50) to create heterospheroids. Monospheroid or heterospheroid formation was visually confirmed using phase contrast microscopy at day 4.
(§2) Response to chemotherapy. Carboplatin (MedChemExpress, Monmouth Junction, NJ) was dissolved by sonication in sterile PBS at a stock concentration of 5 mg/mL. OVCAR3 monospheroids or OVCAR3/macrophage heterospheroids formed over 4 days were treated with 0-500 μM carboplatin and incubated for 2 days/48 hours. An MTS assay was then used to determine the percent cell viability in carboplatin-treated spheroids compared to untreated controls. IC50 values were calculated with the GraphPad Prism normalized log (inhibitor) variable slope nonlinear fit function.
(§3) siSIRPα LNP immune checkpoint treatment. Mono-or hetero-spheroids were treated with 25 nM siSIRPα LNP on day 2 in hanging drop culture. LNP ability to reduce both macrophage SIRPα expression and OvCa metastatic behavior were evaluated over 4 more days.

In test [1] the test system is OVCAR3/macrophage heterospheroids. The experiment in a line: Response to carboplatin chemotherapy, MTS viability, heterospheroids. Format: cell-based. On the procedure:
as §1, §2, §3

SMILES strings stand for the structures.

For orientation: IC50 means the point on the concentration scale where inhibition reaches its midpoint. A high value points to a need for much substance.

With `N.N.O=C([O-])C1(C(=O)[O-])CCC1.[Pt+2]` [carboplatin], the half-inhibitory concentration (IC50) in the test with OVCAR3 monospheroids (OVCAR3 monospheroids, carboplatin 0-500 μM, FIG. 1B) turned out to be 114 µM; with OVCAR3 monospheroids (monospheroids after siSIRPα LNP, FIG. 15A), 272 µM; in the test with OVCAR3 monospheroids (monospheroids, control, 0-500 μM for 48 hours, MTS, FIG. 10C/15A), 218 µM; in test [1] (OVCAR3/THP1 OvCa/MP hetero-spheroids, no LNP, FIG. 1B/6B), 536 µM; in test [1] (OvCa/MP hetero-spheroids treated with siSIRPα-LNP, FIG. 6B), 213 µM; in test [1] (heterospheroids with 25 nM siSIRPα LNP treatment, FIG. 14B), 321 ± 54.6 µM. The IC50 in test [1] (heterospheroids with negative control (scramble) siRNA LNP, FIG. 15C) was 405 µM; in test [1] (heterospheroids, no treatment, 0-500 μM for 48 hours, MTS, FIG. 10C/14B/15C) it was 368 µM.
